Experimental data from patent publication US20140377340A1, “HLA-DR BINDING PEPTIDES AND THEIR USES” (priority 2007, published 2014).

How the values were obtained:
purified HLA DRB1*1101 = molecular target: T1, purified HLA DRB1*1101 (Homo sapiens, UniProt P01903+P01911, A100R/A169T/A87E/I96F/K41T/L162R/M171V/P40S/Q125H/Q178H/Q39Y/Q99D/R42S/S66Y/T262R/V115G/W38E); assay: HLA-DR radioligand binding inhibition assay, DRB1*1101; conditions: IC50 nM purified HLA DRB1 *1101, purified HLA DRB1*1101
T1 construct: purified from EBV transformed homozygous cell lines or single MHC allele transfected 721.221, C1R, or fibroblast lines; made in house
Outline: (§1)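 First, HLA-DR was purified from lysates on LB3.1 columns. Then 1 μM to 1 nM protein was incubated 2 days with 1-10 nM radiolabeled peptide at pH 4 to 7. Finally, complexes were captured for 3 hours and bound cpm determined.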

purified HLA DRB1*1201 = molecular target: T2, purified HLA DRB1*1201 (Homo sapiens, UniProt P01903+P01911, A100R/A169T/D57E/D86V/F55L/H45Y/K41T/L162R/M171V/P40S/Q125H/Q178H/Q39Y/Q99D/R42G/S66L/T262R/V114A/V67L/W38E/Y59H/Y61H/Y89S); assay: HLA-DR radioligand binding inhibition assay, DRB1*1201
T2 construct: purified from EBV transformed homozygous cell lines or single MHC allele transfected 721.221, C1R, or fibroblast lines; made in house
Procedure: (§2) Instead, wells of an opaque white 96-well Optiplate (Packard) are coated with 3 μg (100 μl@ 30 μg/ml) of HLA-specific antibody (Ab) that “capture” complexes of radiolabeled MHC and unlabeled peptide transferred from the molecular binding assay plate in 100 μl of 0.05% NP40/PBS. After a 3-hour incubation period, the supernatant is decanted and scintillation fluid (Microscint 20) added. Captured complexes are then measured on a microplate scintillation and luminescence counter (TopCount NXTTM; Packard).
(§3) HLA-DR purification. Fifteen distinct HLA-DR molecules were used in quantitative assays to measure the binding of peptides to solubilized HLA-DR molecules. […] Briefly, columns of inactivated Sepharose CL4B and Protein A Sepharose were used as pre-columns. HLA-DR molecules were captured by passage of lysates over LB3.1 monoclonal antibody (anti-HLA-DRA) columns. Antibody columns were washed with 10 mM Tris-HCL, pH8.0 with 1% (v/v) NP-40, followed by PBS containing 0.4% (w/v) n-octylglucoside. […] The pH was reduced to 8.0 and the eluates were concentrated by centrifugation in Centriprep 30 concentrators at 2000 rpm (Amicon, Beverly, Mass.).
(§4) Briefly, 1-10 nM of radiolabeled peptide was co-incubated for 2 days at either room temperature or 37° C. with 1 μM to 1 nM purified HLA-DR molecules in the presence of a cocktail of protease inhibitors. Assays were performed at various pH conditions, ranging from pH 4 to pH 7. […] After incubation, the percentage of HLA-DR-bound radioactivity is determined by capturing HLA-DR/peptide complexes on Optiplates (Packard Instruments, Meriden, Conn.) coated with the LB3.1 antibody and determining bound counts per minute using the TopCount microscintillation counter (Packard Instruments). […] Competitor peptides are tested in 2-4 complete, independent experiments, at concentrations ranging from […].

purified HLA DRB3*0101 = molecular target: T3, purified HLA DRB3*0101 (Homo sapiens, UniProt P01903+P79483); assay: HLA-DR radioligand binding inhibition assay, DRB3*0101; conditions: IC50 nM purified HLA DRB3 *0101, purified HLA DRB3*0101
T3 construct: purified from EBV transformed homozygous cell lines or single MHC allele transfected 721.221, C1R, or fibroblast lines; made in house
Procedure: as §2, §3, §4

purified HLA DRB1*0802 = molecular target: T4, purified HLA DRB1*0802 (Homo sapiens, UniProt P01903+P01911, A100R/A103L/A169T/F76Y/H45Y/I96F/K41T/L162R/M171V/P40S/Q125H/Q178H/Q39Y/Q99D/R218S/R42G/S66Y/V115G/W38E); assay: HLA-DR radioligand binding inhibition assay, DRB1*0802; conditions: IC50 nM purified HLA DRB1 *0802, purified HLA DRB1*0802
T4 construct: purified from EBV transformed homozygous cell lines or single MHC allele transfected 721.221, C1R, or fibroblast lines; made in house
Procedure: as §2, §3, §4

purified HLA DRB1*0301 = molecular target: T5, purified HLA DRB1*0301 (Homo sapiens, UniProt P01903+P01911, A100K/A102G/A103R/A169T/F55Y/I96L/K41T/L162R/M171V/P40S/Q125H/Q178H/Q39Y/R42S/S66N/T106N/T262R/W38E/Y61H); assay: HLA-DR radioligand binding inhibition assay, DRB1*0301; conditions: IC50 nM purified HLA DRB1 *0301, purified HLA DRB1*0301
T5 construct: purified from EBV transformed homozygous cell lines or single MHC allele transfected 721.221, C1R, or fibroblast lines; made in house
Procedure: as §2
HLA-DR purification. Fifteen distinct HLA-DR molecules were used in quantitative assays to measure the binding of peptides to solubilized HLA-DR molecules. […] Briefly, columns of inactivated Sepharose CL4B and Protein A Sepharose were used as pre-columns. HLA-DR molecules were captured by passage of lysates over LB3.1 monoclonal antibody (anti-HLA-DRA) columns. Antibody columns were washed with 10 mM Tris-HCL, pH8.0 with 1% (v/v) NP-40, followed by PBS containing 0.4% (w/v) n-octylglucoside.
Briefly, 1-10 nM of radiolabeled peptide was co-incubated for 2 days at either room temperature or 37° C. with 1 μM to 1 nM purified HLA-DR molecules in the presence of a cocktail of protease inhibitors. Assays were performed at various pH conditions, ranging from pH 4 to pH 7. […] After incubation, the percentage of HLA-DR-bound radioactivity is determined by capturing HLA-DR/peptide complexes on Optiplates (Packard Instruments, Meriden, Conn.) coated with the LB3.1 antibody and determining bound counts per minute using the TopCount microscintillation counter (Packard Instruments).

purified HLA DRB1*0404 = molecular target: T6, purified HLA DRB1*0404 (Homo sapiens, UniProt P01903+P01911, A100R/A169T/F76Y/I96L/K127E/L162R/M171V/N62H/P40V/Q125Y/R42H/S133A/S149N/S66Y/V209L/W38E); assay: HLA-DR radioligand binding inhibition assay, DRB1*0404; conditions: IC50 nM purified HLA DRB1 *0404, purified HLA DRB1*0404
T6 construct: purified from EBV transformed homozygous cell lines or single MHC allele transfected 721.221, C1R, or fibroblast lines; made in house
Outline: as §1

[1] = system: short term T cell lines from breast or ovarian cancer patients; assay: IFN-γ ELISpot analysis of short term T cell lines (peptide versus protein fragment; natural processing); assay type: cell-based, human; conditions: T cell lines respond to culture peptide and to protein fragment; FIGS. 5 and 6
Text: IFN-γ ELISpot analysis of short term T cell lines generated against HER-2/neu peptides, p53 (Panel A), p83 (Panel B), p88 (Panel C) and p885 (Panel D). […] Each bar is the mean (s.e.m.) of three replicates.
FIG. 6 is identical to FIG. 5 except that the results were obtained using IGFBP-2 derived helper epitopes.

[2] = system: peptide-specific T cells in PBMC; assay: 10-day interferon-gamma ELIspot with PBMC of breast or ovarian cancer patients and healthy controls; assay type: cell-based, human; conditions: for Percent of patients with responses: fraction of breast or ovarian cancer patients with mean T cell values above cutoff (mean + 2 SD of healthy donors)
Text: Each panel represents a unique peptide and each data point is derived from one individual. The grey box (i.e. cutoff) delineates the region that constitutes the mean and two standard deviations calculated from the normal healthy individuals. The percentages represent the fraction of patients that had mean T cell values above the cutoff. The peptides that are circled are those in which a higher fraction of the patients responded compared to the normal healthy controls. These peptides are considered to be the best vaccine candidates. However, it is clear that the rigidness of this approach could potentially result in many false negatives. […] Despite this, we identified 5 candidates to move forward. The fidelity of this approach is evident from a prior study which has already shown that a HER-2/neu peptide, p884-899, which encompasses the binding motif of p885, is an HLA-DR4 epitope.
Enzyme-linked immunosorbent spot assay. A 10-day ELlspot for detecting low-frequency T cells was used to determine reactivity to the tumor antigen peptides (Table 1) as described (Knutson K L et al. J Clin Onc 2006;24: 4254-61). […] PMA/Ionomycin and the CEF pool were used as positive non-tumor related controls as previously described (Knutson, 2006).
Using predictive algorithms discussed above, candidate HLA-DR1-binding epitopes were identified. […] An interferon-gamma ELIspot assay was used to assess immunity to the indiscriminate binding peptides in 48 patients with either breast or ovarian cancer and 18 healthy controls.
Using an ELlspot assay with a limit of detection of approximately […], patient-derived PBMC were screened for reactivity against all of the HLA-DR binding peptides.

[3] = system: 15 different HLA-DR molecules; assay: HLA-DR binding assays, panel of 15 different HLA-DR molecules (breadth of binding); conditions: number of the 15 HLA-DR molecules bound (binders: 1000 nM or better)

T1 sequence (P01903 26-254, other chains not shown): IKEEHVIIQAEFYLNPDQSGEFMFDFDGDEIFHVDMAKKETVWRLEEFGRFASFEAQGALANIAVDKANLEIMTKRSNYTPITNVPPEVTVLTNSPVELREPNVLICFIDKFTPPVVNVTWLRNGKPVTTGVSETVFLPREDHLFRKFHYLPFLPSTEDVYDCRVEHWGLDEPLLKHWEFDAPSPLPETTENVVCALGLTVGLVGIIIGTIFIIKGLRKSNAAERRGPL

| SMILES | naturally processed and presented antigen [1] | Percent of patients with responses [2] [%] | Total XRN [3] | further results |
| --- | --- | --- | --- | --- |
| CC[C@H](C)[C@H](NC(=O)[C@H](CO)NC(=O)[C@@H]1CCCN1C(=O)[C@H](CCCCN)NC(=O)[C@@H]1CCCN1C(=O)[C@H](CC(C)C)NC(=O)[C@H](CCC(=O)O)NC(=O)[C@H](C)NC(=O)[C@H](CO)NC(=O)[C@@H](NC(=O)[C@@H](NC(=O)[C@@H](NC(=O)[C@@H](N)[C@@H](C)O)[C@@H](C)CC)[C@@H](C)O)C(C)C)C(=O)N[C@@H](CO)C(=O)N[C@@H](CO)C(=O)O [Peptide 9019.0132] | – | – | – | IC50 (purified HLA DRB1*1101): > 20000 nM; IC50 (purified HLA DRB1*1201): > 20000 nM; IC50 (purified HLA DRB3*0101): > 20000 nM; IC50 (purified HLA DRB1*0802): > 20000 nM; IC50 (purified HLA DRB1*0301): 74 nM; IC50 (purified HLA DRB1*0404): 7000 nM |
| CC(C)C[C@H](NC(=O)[C@H](CO)NC(=O)[C@H](C)NC(=O)[C@H](CC(N)=O)NC(=O)[C@@H](NC(=O)[C@@H]1CCCN1C(=O)[C@H](CC(C)C)NC(=O)[C@H](Cc1ccc(O)cc1)NC(=O)[C@@H](NC(=O)[C@H](CC(C)C)NC(=O)[C@H](CCC(=O)O)NC(=O)[C@H](CC(C)C)NC(=O)[C@@H](N)CC(N)=O)[C@@H](C)O)[C@@H](C)O)C(=O)N[C@@H](CO)C(=O)N[C@@H](Cc1ccccc1)C(=O)O [Peptide 9019.0030] | naturally processed and presented antigens | 15 | 12 | – |
| CC(C)C[C@H](NC(=O)[C@H](CC(N)=O)NC(=O)[C@H](CO)NC(=O)[C@@H](NC(=O)[C@H](Cc1ccccc1)NC(=O)[C@H](CS)NC(=O)[C@H](C)NC(=O)[C@@H](N)Cc1ccc(O)cc1)C(C)C)C(=O)N[C@@H](C)C(=O)N[C@H](C(=O)NCC(=O)N[C@@H](CCCNC(=N)N)C(=O)N[C@@H](CC(N)=O)C(=O)N[C@@H](CC(N)=O)C(=O)N[C@@H](CO)C(=O)O)[C@@H](C)O [Peptide 9019.0141] | – | 25 | 9 | – |
| CC[C@H](C)[C@H](NC(=O)[C@@H](NC(=O)[C@H](CC(C)C)NC(=O)[C@H](CCCCN)NC(=O)[C@H](C)NC(=O)[C@@H](NC(=O)[C@@H](NC(=O)[C@@H]1CCCN1C(=O)[C@@H]1CCCN1C(=O)[C@H](CC(N)=O)NC(=O)[C@H](Cc1c[nH]c2ccccc12)NC(=O)[C@H](Cc1ccccc1)NC(=O)[C@@H](NC(=O)[C@H](CC(C)C)NC(=O)[C@@H](N)CC(C)C)[C@@H](C)O)[C@@H](C)O)[C@@H](C)O)[C@@H](C)O)C(=O)O [Peptide 9019.0105] | – | 17 | 10 | – |
| CC[C@H](C)[C@H](NC(=O)[C@@H]1CCCN1)C(=O)N[C@@H](CCCCN)C(=O)N[C@@H](Cc1c[nH]c2ccccc12)C(=O)N[C@@H](CCSC)C(=O)N[C@@H](C)C(=O)N[C@@H](CC(C)C)C(=O)N[C@@H](CCC(=O)O)C(=O)N[C@@H](CO)C(=O)N[C@H](C(=O)N[C@@H](CC(C)C)C(=O)N[C@@H](CCCNC(=N)N)C(=O)N[C@@H](CCCNC(=N)N)C(=O)N[C@@H](CCCNC(=N)N)C(=O)N[C@@H](Cc1ccccc1)C(=O)O)[C@@H](C)CC [Peptide 9019.0087] | naturally processed and presented antigens | 25 | 13 | – |
| CC[C@H](C)[C@H](NC(=O)[C@H](Cc1c[nH]cn1)NC(=O)[C@H](CC(C)C)NC(=O)[C@H](CO)NC(=O)[C@H](Cc1ccc(O)cc1)NC(=O)[C@H](CC(C)C)NC(=O)[C@H](Cc1c[nH]cn1)NC(=O)[C@H](CCC(=O)O)NC(=O)[C@H](CC(C)C)NC(=O)[C@@H]1CCCN1C(=O)CNC(=O)[C@H](CCCNC(=N)N)NC(=O)[C@@H](N)CCC(=O)O)C(=O)N1CCC[C@H]1C(=O)N[C@@H](CC(N)=O)C(=O)O [Peptide 9019.0190, EROPLEHLYSLHIPN] | naturally processed peptides | 23 | 8 | – |
| CC[C@H](C)[C@H](N)C(=O)N[C@@H](CCCCN)C(=O)N[C@@H](Cc1c[nH]c2ccccc12)C(=O)N[C@@H](CCSC)C(=O)N[C@@H](C)C(=O)N[C@@H](CC(C)C)C(=O)N[C@@H](CCC(=O)O)C(=O)N[C@@H](CO)C(=O)N[C@H](C(=O)N[C@@H](CC(C)C)C(=O)N[C@@H](CCCNC(=N)N)C(=O)N[C@@H](CCCNC(=N)N)C(=O)N[C@@H](CCCNC(=N)N)C(=O)N[C@@H](Cc1ccccc1)C(=O)N[C@H](C(=O)O)[C@@H](C)O)[C@@H](C)CC [Peptide 9019.0003] | – | 4 | 10 | patient response rate on exclusion of one healthy individual with a robust response ([2]; recalculated cutoff, FIG. 1): 15% |
